Assay results reported in publication PMC12002339 (Proceedings of the National Academy of Sciences of the …, 2025).

T1: OmpF3–MlaA (Escherichia coli, UniProt P02931+P76506)
T1 sequence (P02931 23-362): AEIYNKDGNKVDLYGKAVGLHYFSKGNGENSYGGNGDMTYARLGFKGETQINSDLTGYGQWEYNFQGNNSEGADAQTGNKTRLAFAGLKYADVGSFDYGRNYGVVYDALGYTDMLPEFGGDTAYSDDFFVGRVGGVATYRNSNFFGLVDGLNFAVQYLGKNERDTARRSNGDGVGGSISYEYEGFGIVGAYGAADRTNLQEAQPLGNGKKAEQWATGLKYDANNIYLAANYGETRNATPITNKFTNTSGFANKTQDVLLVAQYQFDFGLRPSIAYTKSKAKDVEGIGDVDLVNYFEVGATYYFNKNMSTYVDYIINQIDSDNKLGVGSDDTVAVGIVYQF
T1 sequence (P76506 18-251): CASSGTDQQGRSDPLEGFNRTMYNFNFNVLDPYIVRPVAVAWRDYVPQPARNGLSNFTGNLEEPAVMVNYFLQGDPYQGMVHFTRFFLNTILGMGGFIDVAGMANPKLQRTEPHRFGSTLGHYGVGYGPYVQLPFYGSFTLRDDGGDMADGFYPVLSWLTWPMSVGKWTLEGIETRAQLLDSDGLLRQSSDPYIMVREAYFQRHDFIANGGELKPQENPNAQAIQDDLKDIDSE

T2: OmpF3 (Escherichia coli, UniProt P02931)
T2 sequence (P02931 23-362): T1 sequence (P02931 23-362)

T3: MlaC (Escherichia coli, UniProt P0ADV7)
T3 sequence (P0ADV7 22-211): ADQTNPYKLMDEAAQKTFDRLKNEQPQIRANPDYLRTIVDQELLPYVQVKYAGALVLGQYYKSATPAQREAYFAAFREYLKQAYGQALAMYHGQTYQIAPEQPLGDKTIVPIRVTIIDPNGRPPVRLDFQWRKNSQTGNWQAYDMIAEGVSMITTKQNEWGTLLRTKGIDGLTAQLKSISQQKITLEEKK

B1: OmpF (natural protein)
chain: T1 sequence (P02931 23-362)

What was measured:
OmpF3–MlaA = molecular target: T1, OmpF3–MlaA; test: native MS of lipid-bound complex; format: binding; conditions: incubated with synthetic lipid
OmpF3 = molecular target: T2, OmpF3; test: native MS of lipid-bound complex; format: binding; conditions: incubated with synthetic lipid; negative ion mode; MlaA-free trimer
MlaC = molecular target: T3, MlaC; test: native MS of lipid-loaded MlaC after buffer exchange; format: binding; conditions: 5 µM delipidated MlaC, 25 µM lipid, 5 min, 2xCMC C8E4, 200 mM ammonium acetate pH 7.0, no OmpF3–MlaA
native MS = molecular target: the molecule itself; test: native MS

Molecule | degree of phospholipid binding (OmpF3–MlaA) | degree of phospholipid binding (OmpF3–MlaA; positive and negative ion mode) | further results
CCCCCCCCCCCCCCCCCC(=O)OC[C@H](COP(=O)(O)OCC(O)CO)OC(=O)CCCCCCCCCCCCCCCCC (stereo partly shown) [DSPG] | Varying the degree of saturation (DSPG) or length (POPG) of the lipid chains | – | –
CCCCCCCC/C=C\CCCCCCCC(=O)OC[C@H](COP(=O)([O-])OCC[N+](C)(C)C)OC(=O)CCCCCCC/C=C\CCCCCCCC [DOPC] | – | DOPC binds with high affinity to OmpF3 and OmpF3–MlaA | degree of phospholipid binding (OmpF3): DOPC binds with high affinity to OmpF3 and OmpF3–MlaA
CCCCCCCC/C=C\CCCCCCCC(=O)OC[C@H](COP(=O)(O)OCC(O)CO)OC(=O)CCCCCCC/C=C\CCCCCCCC (stereo partly shown) [DOPG] | – | – | % MlaC loaded (MlaC): ~ 5%
CCCCCCCC/C=C\CCCCCCCC(=O)O[C@H](COC(=O)CCCCCCCCCCCCCCC)COP(=O)(O)OCC(O)CO (stereo partly shown) [POPG] | Varying the degree of saturation (DSPG) or length (POPG) of the lipid chains | – | –
CCCCCCCC/C=C\CCCCCCCC(=O)OC[C@H](COP(=O)(O)OCCN)OC(=O)CCCCCCC/C=C\CCCCCCCC [DOPE] | – | DOPE binds with intermediate affinity, and its binding is strongly increased by MlaA | –
B1 | – | – | stoichiometry N (native MS): 3
